TGI and GI50 data for eight compounds are collected here from PubChem BioAssay (NCI).

Test systems include COLO 205 colon; HCC-2998 colon; HL-60(TB) leukemia; HOP-92 NSCLC; HS 578T breast; NCI-H460 lung; OVCAR-8 ovarian; PC-3 prostate; SK-MEL-5 melanoma; UACC-257 melanoma.
What all share (assay): NCI tumour cell line growth inhibition, 48 h

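Growth conditions: 96-well plates. Treatment: test compound, 48 hours, 5 concentrations. Analysis: linear interpolation between bracketing concentrations; unreached endpoints set to highest concentration. Abbreviation: GI50, concentration required for 50% inhibition of growth. TGI: total growth inhibition.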

As to `COc1ccc(CCN2C(=O)C=CC2=O)cc1OC`, the TGI with COLO 205 colon was determined as 3.54 µM; with HCC-2998 colon, 34.8 µM; in the test with HL-60(TB) leukemia it was 21.5 µM; in the test on HOP-92 NSCLC, 40.1 µM; with HS 578T breast it was 99.6 µM; in the test with NCI-H460 lung, 46.8 µM. Moreover, the TGI in the test with OVCAR-8 ovarian stood at 44.1 µM; with PC-3 prostate it was 35.1 µM; in the test on SK-MEL-5 melanoma it was 31.5 µM; with UACC-257 melanoma, 30.9 µM.
On to `O=C(Nc1ccccc1O)c1cccc(NC2=C(Cl)C(=O)N(Cc3ccccc3)C2=O)c1`, for which the GI50 in the test on COLO 205 colon was 13.2 µM; in the test with HCC-2998 colon, 3.33 µM; in the test with HL-60(TB) leukemia, 1.5 µM; in the test with HOP-92 NSCLC it was 10.5 µM; in the test on HS 578T breast, 5.28 µM; with NCI-H460 lung, 4.22 µM. Besides, the GI50 was 2.06 µM in the test on OVCAR-8 ovarian, 13.7 µM in the test with PC-3 prostate, 6.66 µM in the test with SK-MEL-5 melanoma and 4.44 µM in the test on UACC-257 melanoma. The TGI in the test with COLO 205 colon came to 40 µM; with HCC-2998 colon, 13.4 µM; in the test with HL-60(TB) leukemia it was 8.5 µM; in the test on HOP-92 NSCLC, 24.3 µM; in the test on HS 578T breast it was 17.8 µM; in the test on NCI-H460 lung, 14.9 µM. Further, the TGI in the test with OVCAR-8 ovarian turned out to be 4.7 µM; in the test with PC-3 prostate it was 26.6 µM; in the test with SK-MEL-5 melanoma it was 14.4 µM; in the test with UACC-257 melanoma, 16.6 µM.
Turning to `CCOc1cccc(/C=N/NC(=O)c2ccc(Nc3ccnc(C(F)(F)F)c3)cc2)c1O`, the GI50 is 1.14 µM in the test on COLO 205 colon; 1.49 µM with HCC-2998 colon; 1.33 µM in the test with HL-60(TB) leukemia; 1.01 µM in the test on HOP-92 NSCLC; 6.31 µM in the test with HS 578T breast; 0.492 µM in the test with NCI-H460 lung. The GI50 in the test on OVCAR-8 ovarian is 0.599 µM; in the test on PC-3 prostate, 0.607 µM; with SK-MEL-5 melanoma, 1.18 µM; in the test with UACC-257 melanoma, 0.728 µM. Besides, the TGI with COLO 205 colon is above 38.3 µM; with HCC-2998 colon, above 20.4 µM; in the test on HL-60(TB) leukemia, 5.47 µM; with HOP-92 NSCLC, above 64.2 µM; with HS 578T breast it was above 100 µM; in the test with NCI-H460 lung, 13.6 µM. In addition, the TGI with OVCAR-8 ovarian is above 72.5 µM; in the test with PC-3 prostate, above 33.8 µM; with SK-MEL-5 melanoma, 8.11 µM; in the test on UACC-257 melanoma, above 21.1 µM.
`O=C(CN1CCN(c2ncnc3ccccc23)CC1)Nc1ccc(Cl)cc1C(=O)c1ccccc1Cl`: the GI50 in the test with COLO 205 colon was 0.349 µM; with HCC-2998 colon, 1.79 µM; in the test with HL-60(TB) leukemia, 0.415 µM; in the test with HOP-92 NSCLC it was 0.542 µM; in the test on HS 578T breast, 0.478 µM; with NCI-H460 lung, 0.598 µM. Besides, the GI50 is 1.28 µM with OVCAR-8 ovarian, 0.818 µM with PC-3 prostate, 0.5 µM in the test on SK-MEL-5 melanoma and 2.04 µM in the test on UACC-257 melanoma. In addition, the TGI with COLO 205 colon was 1.33 µM; in the test with HCC-2998 colon, 4.96 µM; in the test with HOP-92 NSCLC it was 15.4 µM; in the test on HS 578T breast, 3.7 µM; in the test on NCI-H460 lung it was 11.6 µM; in the test with OVCAR-8 ovarian, above 30.9 µM. Moreover, the results for the TGI in the test on PC-3 prostate, with SK-MEL-5 melanoma and with UACC-257 melanoma were above 56.3 µM, 2.7 µM and 6.69 µM, respectively.
In the case of `CN(C)c1ccc(N2Cc3ccccc3OC3=C2C(=O)c2c(O)ccc(O)c2C3=O)cn1`, the GI50 was 0.174 µM in the test with COLO 205 colon; 1.18 µM with HCC-2998 colon; 0.147 µM with HL-60(TB) leukemia; 0.2 µM in the test with HOP-92 NSCLC; 0.444 µM with HS 578T breast; 1.28 µM with NCI-H460 lung. The GI50 in the test on OVCAR-8 ovarian is 0.268 µM; with PC-3 prostate, 0.221 µM; in the test with SK-MEL-5 melanoma it was 0.722 µM; in the test on UACC-257 melanoma, 0.311 µM. Further, the TGI with COLO 205 colon stood at 0.38 µM; in the test with HCC-2998 colon, 2.58 µM; in the test with HL-60(TB) leukemia, 0.538 µM; in the test on HOP-92 NSCLC it was 0.467 µM; in the test on HS 578T breast, 26.1 µM; with NCI-H460 lung it was 3.67 µM. Also, the TGI with OVCAR-8 ovarian stood at 1.26 µM; with PC-3 prostate, 0.867 µM; with SK-MEL-5 melanoma, 2.01 µM; with UACC-257 melanoma, 1.14 µM.
For `CC(=O)N1c2ccccc2C23CCN(C)CC4C(C)OCC(C4CC2=O)C13` (centres undefined), the TGI in the test on COLO 205 colon, with HCC-2998 colon, in the test on HL-60(TB) leukemia, with HOP-92 NSCLC, in the test on HS 578T breast and in the test on NCI-H460 lung was above 100 µM in each case. In addition, the TGI in the test with OVCAR-8 ovarian, in the test with PC-3 prostate, with SK-MEL-5 melanoma and in the test with UACC-257 melanoma was above 100 µM in each case.
On to `N#C/C(=C\c1ccc(-c2ccc(Cl)cc2)o1)C(=O)Nc1ncc(Cc2ccc(Cl)cc2)s1`, for which the GI50 in the test with COLO 205 colon is 2.45 µM; in the test on HCC-2998 colon it was 3.63 µM; in the test with HL-60(TB) leukemia, above 100 µM; in the test with HOP-92 NSCLC, 1.97 µM; with HS 578T breast it was 1.59 µM; with NCI-H460 lung, 0.983 µM. Further, the GI50 in the test with OVCAR-8 ovarian was 1.81 µM; in the test on PC-3 prostate it was 1.5 µM; in the test on SK-MEL-5 melanoma, 2.51 µM; with UACC-257 melanoma it was 4.06 µM. The TGI was 7.39 µM with COLO 205 colon; above 100 µM with HCC-2998 colon; above 100 µM in the test with HL-60(TB) leukemia; 7.11 µM in the test on HOP-92 NSCLC; 7.8 µM with HS 578T breast; 2.46 µM in the test on NCI-H460 lung. For the same compound, the TGI with OVCAR-8 ovarian was 5.76 µM; in the test with PC-3 prostate it was 3.67 µM; in the test on SK-MEL-5 melanoma, 7.41 µM; with UACC-257 melanoma it was above 100 µM.
As to `COc1cc(-c2nc(Nc3nc4ccccc4[nH]3)nc(N)c2C#N)cc(OC)c1OC`, the GI50 is 1.74 µM with COLO 205 colon; above 40.8 µM with HCC-2998 colon; 0.991 µM in the test with HL-60(TB) leukemia; 0.341 µM in the test with HOP-92 NSCLC; 0.33 µM in the test on HS 578T breast; 1.77 µM with NCI-H460 lung. The GI50 in the test with OVCAR-8 ovarian was 28.9 µM; with PC-3 prostate it was 1.65 µM; in the test on SK-MEL-5 melanoma it was 0.414 µM; with UACC-257 melanoma, above 100 µM. For the same compound, the TGI was above 50.7 µM in the test with COLO 205 colon; above 100 µM in the test with HCC-2998 colon; above 100 µM in the test on HL-60(TB) leukemia; 31.8 µM in the test on HOP-92 NSCLC; above 100 µM in the test with HS 578T breast; above 54.2 µM in the test with NCI-H460 lung. For the same compound, the TGI in the test on OVCAR-8 ovarian is above 100 µM; in the test on PC-3 prostate it was above 93.3 µM; with SK-MEL-5 melanoma, 16.2 µM; with UACC-257 melanoma it was above 100 µM.
